The source of these data is article PMC6204821, “Inhibitory effect of microalgae and cyanobacteria extracts on influenza virus replication and neuraminidase activity” (PeerJ, 2018).

Molecules are shown by their SMILES.

The test system of data set [1] is A(H1N1)pdm09-WT (A/California/04/2009). Description: microbe, parasite or virus in culture. The note with it: Influenza A virus, H1N1, MDCK, read-out: EC50 A(H1N1)pdm09-WT. In kind it is cell-based.
The subject of data set [2] is A(H3N2)-WT (A/Switzerland/9715293/2013). Description: microbe, parasite or virus in culture. The class given is cell-based. The note with it: Influenza A virus, H3N2, MDCK, read-out: EC50 A(H3N2)-WT.
A further data set is described as follows: in vitro. The note with it: dog.
Data set [3] concerns the target neuraminidase of B/Perth/211/2001 Yam (WT) (Influenza B virus, UniProt Q3S340). Description: biochemical. The note with it: read-out: NA Activity (%).

The EC50 is the midpoint of the concentration-response curve.

Chain of neuraminidase of B/Perth/211/2001 Yam (WT) (Q3S340 1-466): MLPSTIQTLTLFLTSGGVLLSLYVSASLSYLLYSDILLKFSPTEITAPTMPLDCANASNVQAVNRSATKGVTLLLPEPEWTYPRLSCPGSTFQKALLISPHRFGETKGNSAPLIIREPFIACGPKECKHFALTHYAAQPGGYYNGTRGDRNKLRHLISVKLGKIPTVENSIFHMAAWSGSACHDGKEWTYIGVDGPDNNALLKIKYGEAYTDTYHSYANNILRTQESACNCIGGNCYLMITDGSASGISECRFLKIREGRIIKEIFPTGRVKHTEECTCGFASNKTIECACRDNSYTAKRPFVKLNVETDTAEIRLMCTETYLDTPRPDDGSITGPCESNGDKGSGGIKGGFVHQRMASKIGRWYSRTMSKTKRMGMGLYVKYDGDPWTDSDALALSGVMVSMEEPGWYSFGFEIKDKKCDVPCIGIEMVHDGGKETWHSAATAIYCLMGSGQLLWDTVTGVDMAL
Description for in vitro: One hundred microliters of 2.0 × 10^4 MDCK cells were seeded into the 96-well culture plates (flat bottom) and grown for 24 h at 37 °C in a 5% CO2 atmosphere, then, the extracts were added with a final concentration of 1 mg/mL in DMEM. […] The extracts were diluted in culture medium DMEM, the DMSO final concentration was equal to 1.0% (v/v). After 48 h of cells incubation with extracts or vehicle (DMSO), a freshly prepared XTT (Sigma) solution was added, as specified by the manufacturer’s instructions. […] The cell viability was calculated by the comparison between absorbance (A475 nm–A660 nm) from treated (A) and untreated (B) cells using the formula: A/B × 100. Tests were carried out performing three replicates (n = 3).

`CCC(CC)O[C@@H]1C=C(C(=O)O)C[C@H](N)[C@H]1NC(C)=O` [OST-car, Oseltamivir carboxylate]: the EC50 was determined as 0.012 µM in data set [1] and 0.032 µM in data set [2]. In “in vitro”, this compound yielded a CC50 at 48 h of 2130 µM.
In the case of `CCOC(=O)C1=C[C@@H](OC(CC)CC)[C@H](NC(C)=O)[C@@H](N)C1` [Oseltamivir], in data set [3], the activity at 10 pM is 104%, the activity at 0.0001 µM was 118%, the activity at 0.001 µM was found to be 92% and the activity at 0.01 µM was determined as 32%. Further, in data set [3], the activity at 0.1 µM was 11% and the activity at 1 µM worked out at 11%.
